Assay results as given in PubChem BioAssay (NCI).
Several values for one entry are separate records, joined by “and”; a condition that tells them apart may be missing. Equal entries are not always repeated.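 Growth conditions: 96-well plates. Treatment: test compound, 48 hours, 5 concentrations. Analysis: linear interpolation between bracketing concentrations; unreached endpoints set to highest concentration. GI50: concentration for 50% inhibition of growth. At the TGI there is no net growth.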

Legend:
Experiment in all cases: NCI tumour cell line growth inhibition, 48 h
[1] = test system: CCRF-CEM leukemia
[2] = test system: DLD-1 colon
[3] = test system: DMS 273 small cell lung
[4] = test system: HOP-18 NSCLC
[5] = test system: HOP-92 NSCLC
[6] = test system: LOX IMVI melanoma
[7] = test system: OVCAR-4 ovarian
[8] = test system: SNB-19 CNS
[9] = test system: MCF7 breast
[10] = test system: NCI/ADR-RES ovarian

SMILES	TGI [1]	TGI [2]	TGI [3]	TGI [4]	TGI [5]	TGI [6]	TGI [7]	TGI [8]	GI50 [1]	GI50 [2]	GI50 [3]	GI50 [4]	GI50 [5]	GI50 [6]	GI50 [9]	TGI [9]	GI50 [10]	TGI [10]	GI50 [7]	GI50 [8]
CSc1nnc2n1-c1ccccc1SCC2	> 100 µM	> 100 µM	> 100 µM	> 100 µM	> 100 µM	> 100 µM	> 100 µM	> 100 µM	–	–	–	–	–	–	–	–	–	–	–	–
C=C1[C@@H]2CCC(C)(C)[C@H]1CCC(=O)[C@@H]2C(=O)OC	> 100 µM	–	> 100 µM	–	–	> 100 µM	> 100 µM	> 100 µM	–	–	–	–	–	–	–	–	–	–	–	–
CCOC(=O)/C(C#N)=C/c1[nH]c(C)c(C)c1C	> 100 µM	> 100 µM	> 100 µM	> 100 µM	> 100 µM	> 100 µM	> 100 µM	> 100 µM	–	–	–	–	–	–	–	–	–	–	–	–
N[C@@H](Cc1ccc(N(CCCl)CCCl)cc1)C(=O)O	78.9 µM and > 96.4 µM and 66.8 µM	> 92 µM and 193 µM	33.6 µM and 68.3 µM	64.5 µM and 158 µM	52.3 µM and 42 µM and 103 µM	> 100 µM and 57.2 µM and 96.3 µM	> 100 µM and 48.2 µM and 84.3 µM	> 100 µM and 41.6 µM and 204 µM	2.47 µM and 1.96 µM	24.5 µM	6.97 µM	23.7 µM and 55.1 µM	11.9 µM and 15 µM	6.5 µM and 11.9 µM	5.53 µM and 6.95 µM	> 100 µM and 50.4 µM and 97.2 µM	30.6 µM and 32 µM	> 100 µM and 146 µM	32.1 µM and 18.6 µM	30.4 µM and 23 µM
NCCCSCC(=O)O	–	–	> 100 µM	–	> 100 µM	–	> 100 µM	> 100 µM	–	–	–	–	–	–	–	–	–	–	–	–
COc1nc(C(Cl)(Cl)Cl)c(Cl)c(OC)c1Cl	> 64.4 µM and 121 µM	79.8 µM	75.3 µM	70.1 µM	> 59.3 µM and 62 µM	62.6 µM	99.9 µM and 66.3 µM	> 59.3 µM and 59.4 µM	> 45.5 µM	31.7 µM	–	–	> 40.4 µM	–	–	66.8 µM	–	58.4 µM	> 52.1 µM	> 40.8 µM
C[C@]12CC[C@H](O)CC1CCC[C@@H]2O (some centres undefined)	> 100 µM	> 100 µM	> 100 µM	–	> 100 µM	> 100 µM	> 100 µM	> 100 µM	–	–	–	–	–	–	–	–	–	–	–	–
CC1(C)OC(=O)C(c2ccsc2)C(=O)O1	> 100 µM	> 100 µM	> 100 µM	> 100 µM	> 100 µM	> 100 µM	> 100 µM	> 100 µM	–	–	–	–	–	–	–	–	–	–	–	–
O=c1cc(/C=C/c2ccccc2)c2ccc(O/C(=C\c3ccccc3)c3nc4ccccc4c(=O)o3)cc2o1	66.5 µM	> 100 µM	> 100 µM	–	86.1 µM	> 100 µM	> 100 µM	> 100 µM	–	–	–	–	–	–	–	–	–	–	–	–
O=P1(NCCCl)OCCC(OO)N1CCCl (centres undefined)	> 52.7 µM	50.5 µM	> 100 µM	> 100 µM	33.4 µM	37.5 µM	39.1 µM	> 100 µM	–	–	–	–	–	–	–	> 100 µM	–	> 100 µM	–	–
Cn1c(=O)ccc2cc(C(=O)c3ccccc3)ccc21	> 100 µM	> 100 µM	> 100 µM	> 100 µM	> 100 µM	> 100 µM	> 100 µM	> 100 µM	–	–	–	–	–	–	–	–	–	–	–	–
NC1=C(O)/C(=N/NS(=O)(=O)c2ccccc2)C(c2cccc(Cl)c2)O1 (centres undefined)	12 µM	31.7 µM	> 100 µM	> 100 µM	53 µM	49.2 µM	> 100 µM	> 100 µM	–	–	–	–	–	–	–	61.7 µM	–	–	–	–
CCCCCCCCCCCCCCCc1nc(SCC(=O)O)n[nH]1	> 100 µM	56.1 µM	–	> 100 µM	65 µM	> 100 µM	> 100 µM	> 100 µM	–	–	–	–	–	–	–	–	–	–	–	–
COc1ccc2c(c1)[n+](=O)c(C(=O)C/C(=N\NC(=O)C[N+](C)(C)C)C(=O)Nc1cc(Cl)ccc1Cl)c(C)n2O	> 100 µM	> 100 µM	> 100 µM	> 100 µM	> 100 µM	> 100 µM	> 100 µM	> 100 µM	–	–	–	–	–	–	–	–	–	–	–	–
O=C1OC(=O)C2C1C1(c3ccccc3)OC2(c2ccccc2)c2c(Br)c(Br)c(Br)c(Br)c21 (centres undefined)	> 100 µM	> 100 µM	> 100 µM	> 100 µM	> 100 µM	> 100 µM	> 100 µM	> 100 µM	–	–	–	–	–	–	–	–	–	–	–	–
Cn1c(=O)c2nc3sc4ccccc4c(=N)n3c2n(C)c1=O	> 100 µM	> 100 µM	> 100 µM	> 100 µM	> 100 µM	> 100 µM	> 100 µM	> 100 µM	–	–	–	–	–	–	–	–	–	–	–	–
Fc1cccc(C2SCc3nc4ccccc4n32)c1 (centres undefined)	> 100 µM	> 100 µM	> 100 µM	–	55.7 µM	–	–	> 100 µM	–	–	–	–	–	–	–	–	–	–	–	–
O=c1c2ccc(Br)cc2nc(-c2ccccc2)n1NC1OC(CO)C(O)C(O)C1O (centres undefined)	> 100 µM	–	> 100 µM	> 100 µM	> 100 µM	–	> 100 µM	> 100 µM	–	–	–	–	–	–	–	–	–	–	–	–
COc1cc(C2C(C(=O)Nc3ccccc3C)=C(C)NC(C)=C2C(=O)Nc2ccccc2C)ccc1O	> 100 µM	> 100 µM	> 100 µM	> 100 µM	> 100 µM	–	> 100 µM	> 100 µM	–	–	–	–	–	–	–	–	–	–	–	–

SMILES	TGI [1]	TGI [2]	TGI [3]	TGI [4]	TGI [5]	TGI [6]	TGI [7]	TGI [8]	GI50 [1]	GI50 [2]	GI50 [3]	GI50 [4]	GI50 [5]	GI50 [6]	GI50 [9]	TGI [9]	GI50 [10]	TGI [10]	GI50 [7]	GI50 [8]
CN=C(NC#N)NCc1ccccc1	> 100 µM	> 100 µM	> 100 µM	–	> 100 µM	> 100 µM	> 100 µM	> 100 µM	–	–	–	–	–	–	–	–	–	–	–	–
CC(=O)NC1C(OCc2ccccc2)OC(COC(=O)CCCCCCCCCCNC(=O)CCNc2ccc([N+](=O)[O-])c3[nH]c4ccc(O)cc4c(=O)c23)C(O)C1OC(C)C(=O)N[C@H](C(=O)N[C@H](CCC(=O)O)C(N)=O)C(C)C (some centres undefined)	82.5 µM	> 100 µM	> 100 µM	> 100 µM	88.4 µM	89.2 µM	> 100 µM	> 100 µM	–	–	–	–	–	–	–	–	–	–	–	–
CC(=O)c1ccc(-c2ccc(C(C)=O)s2)s1	> 100 µM	> 100 µM	> 100 µM	> 100 µM	> 100 µM	> 100 µM	> 100 µM	> 100 µM	–	–	–	–	–	–	–	–	–	–	–	–
O=C(NCCOCCO)c1ccc(O)cc1	> 100 µM	> 100 µM	> 100 µM	> 100 µM	> 100 µM	> 100 µM	–	–	–	–	–	–	–	–	–	–	–	–	–	–
O=C1C2Cc3ccccc3CN2C(=O)N1CCN1CCOCC1 (centres undefined)	> 100 µM	> 100 µM	> 100 µM	–	–	> 100 µM	> 100 µM	> 100 µM	–	–	–	–	–	–	–	–	–	–	–	–
Nc1c(-c2ccc(-c3c(N)[n+]([O-])c4ccccc4[n+]3[O-])cc2)[n+]([O-])c2ccccc2[n+]1[O-]	> 100 µM	27.2 µM	31.7 µM	20.2 µM	> 100 µM	25.6 µM	35.9 µM	29 µM	–	–	–	–	–	–	–	–	–	–	–	–
O=C1OC(/C=C/c2ccccc2)C(=O)C1=O (centres undefined)	> 100 µM	> 100 µM	> 100 µM	> 100 µM	> 100 µM	–	> 100 µM	> 100 µM	–	–	–	–	–	–	–	–	–	–	–	–
CCN(CC)[C@@H]1c2cc3c(cc2C(c2cc(OC)c(O)c(OC)c2)C2C(=O)CO[C@@H]21)OCO3 (some centres undefined)	> 100 µM	> 100 µM	> 100 µM	–	> 100 µM	> 100 µM	> 100 µM	–	–	–	–	–	–	–	–	–	–	–	–	–
COC(=O)C1=CCS(=O)(=O)C1	–	> 100 µM	–	> 100 µM	> 100 µM	> 100 µM	> 100 µM	> 100 µM	–	–	–	–	–	–	–	–	–	–	–	–
OCC1C2C=CC(O2)[C@H]1CO (some centres undefined)	> 100 µM	> 100 µM	> 100 µM	> 100 µM	> 100 µM	> 100 µM	> 100 µM	> 100 µM	–	–	–	–	–	–	–	–	–	–	–	–
O=C(c1ccccc1)C(c1ccccc1)C1(O)C(=O)Nc2ccc(Br)cc21 (centres undefined)	47.7 µM	> 100 µM	> 100 µM	–	> 100 µM	–	> 100 µM	> 100 µM	–	–	–	–	–	–	–	–	–	–	–	–
CCC1(O)CC(c2ccccc2)N(C)C(c2ccccc2)C1 (centres undefined)	> 100 µM	> 100 µM	> 100 µM	–	> 100 µM	> 100 µM	> 100 µM	> 100 µM	–	–	–	–	–	–	–	–	–	–	–	–
COc1ccc(/C=C\c2cc(OC)c(OC(C)=O)c(OC)c2)cc1	57.3 µM	> 100 µM	> 100 µM	–	68.3 µM	–	> 100 µM	> 100 µM	–	–	–	–	–	–	–	–	–	–	–	–
OC1/C(=C/c2ccccc2)CNC/C1=C\c1ccccc1 (centres undefined)	> 100 µM	> 100 µM	> 100 µM	> 100 µM	> 100 µM	> 100 µM	> 100 µM	> 100 µM	–	–	–	–	–	–	–	–	–	–	–	–
O=C1/C=C/[C@@H](O)[C@@H]2C[C@@H](O)C[C@H]2/C=C/CCCCO1	–	–	–	–	> 20.8 µM	0.539 µM	> 100 µM	> 100 µM	0.595 µM	–	–	–	0.368 µM	0.223 µM	0.327 µM	1.88 µM	0.475 µM	> 54.1 µM	0.47 µM	0.749 µM
OC1OC2COC(c3ccccc3)OC2C(O)C1O (centres undefined)	> 100 µM	> 100 µM	> 100 µM	> 100 µM	> 100 µM	> 100 µM	> 100 µM	> 100 µM	–	–	–	–	–	–	–	–	–	–	–	–
Cc1ccc(Sc2cc([N+](=O)[O-])cc(Sc3ccc(C)cc3)c2Sc2ccc(C)cc2)cc1	65.4 µM	> 100 µM	> 100 µM	–	–	> 100 µM	–	> 100 µM	–	–	–	–	–	–	–	–	–	–	–	–
CC/C(=C(/c1ccc(Cl)cc1)c1ccc(OCCCN(C)C)cc1)c1ccc(OC)cc1	7.19 µM	–	–	–	1.97 µM	1.64 µM	11.5 µM	5.78 µM	1.79 µM	–	–	–	0.829 µM	0.868 µM	1.05 µM	5.89 µM	7.27 µM	16.3 µM	5.25 µM	1.88 µM
Cn1cc(C2=C(c3cn(CCCN/C(N)=N\[N+](=O)[O-])c4ccccc34)C(=O)NC2=O)c2ccccc21	6.63 µM	–	–	–	16.2 µM	21.6 µM	17.4 µM	19 µM	0.0877 µM	–	–	–	3.89 µM	0.949 µM	1.15 µM	> 22.6 µM	> 25 µM	> 25 µM	3.22 µM	4.4 µM
